# Assay results reported in patent US12522836B2, “Nonhuman animal and use for same” (Inter-University Research Institute Corporation Research …, priority 2019, dated 2026).
# How the values were obtained:
# [1] = biological target: T1, OsTIR1(F74G)/mAID-EGFP-NLS expressing cell (Oryza sativa subsp. japonica, UniProt Q7XVM8, F74G); experiment: FACS analysis of degradation of mAID-EGFP-NLS after addition of auxin analog; format: cell-based, human; settings: Example 2; 50 nM, 100 nM, 500 nM or 1 μM, 24 hours; compared with OsTIR1(WT) cell plus auxin
# T1 construct: expressed in transfected cells; host or cells: HCT116
# Protocol: An HCT116 cell (human colon adenocarcinoma-derived cell) having DNA in which an OsTIR1(WT) gene or OsTIR1(F74G) gene and an mAID-EGFP (green fluorescent protein)-NLS (nuclear localization signal) gene were encoded through a P2A sequence inserted onto a chromosome by a transposon (hereinafter, referred to as “OsTIR1(WT)/mAID-EGFP-NLS expressing cell” or “OsTIR1(F74G)/mAID-EGFP-NLS expressing cell”) was prepared (refer to FIG. 1).
# The auxin analog (concentration in culture medium: […]) was added to the OsTIR1(F74G)/mAID-EGFP-NLS expressing cell and cultured for 24 hours. In addition, as a control, a cell containing an auxin added to the OsTIR1(WT)/mAID-EGFP-NLS expressing cell was also prepared.
# After 24 hours from the addition of the auxin analog, the cells were collected, and FACS analysis was performed.
# An HCT116 cell (human colon adenocarcinoma-derived cell) in which a plasmid containing an OsTIR1(WT) gene or OsTIR1(F74G) gene was introduced and an mAID-EGFP (green fluorescent protein)-NLS (nuclear localization signal) gene was inserted onto a chromosome (hereinafter, referred to as “OsTIR1(WT)/mAID-EGFP-NLS expressing cell” or “OsTIR1(F74G)/mAID-EGFP-NLS expressing cell”) was prepared (refer to FIG. 1).
# The auxin analog (concentration in culture medium: 0, 50 nM, 100 nM, 500 nM or 1 μM) was added to the OsTIR1(F74G)/mAID-EGFP-NLS expressing cell and cultured for 24 hours. […]
# [2] = biological target: T2, OsTIR1(F74G)/DHC1-mAID-Clover expressing cell (Oryza sativa subsp. japonica, UniProt Q7XVM8, F74G); experiment: Degradation induction test of DHC1 (microscopy, Western blotting); format: cell-based, human
# T2 construct: expressed in transfected cells; host or cells: HCT116 (OsTIR1 at AAVS1 locus; knock-in at the endogenous DHC1 gene)
# Description: In the HCT116 cell, an OsTIR1(WT) gene or OsTIR1(F74G) gene was introduced into an AAVS1 gene locus, which is a safe harbor site, using a CRISPR/Cas system, and an OsTIR1(WT)-expressed HCT116 cell or OsTIR1(F74G)-expressed HCT116 cell was constructed.
# A plasmid vector having mAID, clover and a neomycin resistance gene and having a homologous sequence with respect to a DHC1 gene so as to sandwich mAID and the neomycin resistance gene was introduced into the OsTIR1(WT)-expressed HCT116 cell or OsTIR1(F74G)-expressed HCT116 cell using a CRISPR/Cas9 system, and homologous recombination with the endogenous DHC1 gene was performed. Next, after selection by G418, the formed colony was dyed using crystal violet. “DHC1” is the abbreviation for dynein heavy chain 1.
# A degradation induction test of DHC1 was performed using the HCT116 cell expressing OsTIR1(F74G) on which homologous recombination had been performed in the above-described section 2 (hereinafter, referred to as “OsTIR1(F74G)/DHC1-mAID-Clover expressing cell”).
# The compound indicated by the formula (I-2) (also referred to as 5-Ph-IAA) was added to the OsTIR1(F74G)/DHC1-mAID-Clover expressing cell, and the appearance of the cell after 24 hours was observed (FIG. 4(A)).
# Furthermore, the degradation of DHC1 was confirmed by Western blotting (FIG. 4(B)).
# mAID-EGFP-CENPH = biological target: T3, mAID-EGFP-CENPH (Oryza sativa subsp. japonica, UniProt Q7XVM8, F74G); experiment: Western blotting of mAID-EGFP-CENPH degradation in HeLa cell (transposon vector + CRISPR-KO system); format: cell-based, human; settings: anti-CENPH antibody, endogenous CENPH knocked out
# T3 construct: P2A linker (self-cleaving; remnant); expressed in transfected cells; host or cells: HeLa
# Description: (§1) In this degradation system, (1) a transposon vector in which an OsTIR1(F74G) gene and an mAID-target gene are connected by a P2A linker gene and (2) a CRISPR-KO vector for knocking out an endogenous target gene containing gRNA and a Cas9 gene are contained.
# (§2) In this degradation system, the OsTIR1(F74G) gene and the mAID-target gene in a genome are integrated by the transposon vector, and an endogenous target gene is knocked out by the CRISPR-KO vector.
# (§3) The transposon vector in which an OsTIR1(F74G) gene and an mAID-EGFP-CENPH or mAID-EGFP-POLD1 target gene were connected by a P2A linker gene was constructed, and this vector was introduced into a HeLa cell together with the CRISPR-KO vector targeting an endogenous CENPH or POLD1 gene. 5-Ph-IAA was added to such a cell, and the degradation of the target protein was confirmed by Western blotting (FIG. 6).
# mAID-EGFP-POLD1 = biological target: T4, mAID-EGFP-POLD1 (Oryza sativa subsp. japonica, UniProt Q7XVM8, F74G); experiment: Western blotting of mAID-EGFP-POLD1 degradation in HeLa cell (transposon vector + CRISPR-KO system); format: cell-based, human; settings: anti-POLD1 antibody, clones #1 to #3, endogenous POLD1 knocked out
# T4 construct: P2A linker (self-cleaving; remnant); expressed in transfected cells; host or cells: HeLa
# Description: as §1, §2, §3
# [3] = Toxicity evaluation in mice (body weight); format: in vivo; settings: 1, 3 and 10 mg/kg intraperitoneally daily for 1 week
# Protocol: Toxicity was evaluated by intraperitoneally administering 0, 1, 3, and 10 mg/kg of 5-Ph-IAA daily for 1 week. As shown in FIG. 7(B), a change in body weight of the mice which had been subjected to the administration was not observed.
# [4] = system: HCT116 cells expressing OsTIR1(F74G); experiment: Control xenograft of HCT116 cells expressing OsTIR1(F74G) in nude mice; format: in vivo; settings: 1, 3 and 10 mg/kg intraperitoneally daily, day 7 to day 14; control without degron-tagged target
# mAID-BRD4 xenografts = biological target: T5, mAID-BRD4 xenografts (Oryza sativa subsp. japonica, UniProt Q7XVM8, F74G); experiment: mAID-BRD4 cell xenograft tumor growth in nude mice; format: in vivo
# T5 construct: expressed in transfected cells; host or cells: HCT116 CMV-OsTIR1(F74G), xenografted into nude mice
# Protocol: (§4) Subsequently, mAID-BRD4 cells or TOP2A-mAC cells were subcutaneously transplanted into nude mice and xenograft tumors were formed in 1 week. After that, 0, 1, 3, and 10 mg/kg of 5-Ph-IAA were intraperitoneally administered daily for an additional week (day 7 to day 14). […] It was confirmed that, when the AID2 system is used, mAID-BRD4 and TOP2A-mAC were successfully removed in a living body of mice, causing tumor suppression.
# Furthermore, 3 mg/kg of 5-Ph-IAA was orally administered to nude mice in which mAID-BRD4 cells were xenografted. FIG. 13(A) is a diagram showing an oral administration schedule of 5-Ph-IAA.
# TOP2A-mAC xenografts = biological target: T6, TOP2A-mAC xenografts (Oryza sativa subsp. japonica, UniProt Q7XVM8, F74G); experiment: TOP2A-mAC cell xenograft tumor growth in nude mice; format: in vivo; settings: 1, 3 and 10 mg/kg intraperitoneally daily, day 7 to day 14
# T6 construct: expressed in transfected cells; host or cells: HCT116 CMV-OsTIR1(F74G), xenografted into nude mice
# Protocol: as §4
# mAID-EGFP reporters = biological target: T7, mAID-EGFP reporters (Oryza sativa subsp. japonica, UniProt Q7XVM8, F74G); experiment: Reporter removal in transgenic mice expressing OsTIR1(F74G) and mAID-EGFP reporter; format: in vivo
# T7 construct: expressed in transfected cells; host or cells: transgenic mice (organs and E13.5 embryos)
# Protocol: In order to further confirm whether the AID2 system functioned in a living body of mice, an attempt to establish transgenic mice expressing OsTIR1(WT) or OsTIR1(F74G) together with mAID-EGFP reporters was performed. As shown in FIG. 11(A), OsTIR1(WT) was confirmed to cause embryonic lethality. In contrast, the establishment of a plurality of mouse strains expressing OsTIR1(F74G) and reporters was confirmed (refer to FIG. 11(A).
# Two adult female transgenic mice from the same TG strain were used to remove reporters in a plurality of organs.
# First, as shown in FIG. 11(B), the expression of reporters in the ovaries and fallopian tubes surgically removed from untreated transgenic mice was confirmed.
# Subsequently, pseudo-administration is performed on one mouse and 10 mg/kg 5-ph-IAA was intraperitoneally administered to the other mouse. […] The same data was obtained for adult male mice derived from the same TG strain.
# Finally, the expression of the reporter in embryos was examined to confirm a rate of removal of a target protein using the AID2 system in vivo. 5 mg/kg of 5-Ph-IAA was intraperitoneally administered to pregnant females with E13.5 embryos. As shown in FIG. 11(D), a reporter signal disappeared within 1 hour after administration and rapid removal of the reporter in vivo was confirmed.
# [5] = system: OsTIR1(F74A)/mAID-EGFP-NLS-expressing cells; experiment: Reversibility of the AID2 system: reporter recovery after removal of 5-Ph-IAA; format: cell-based; settings: medium replaced with medium without 5-Ph-IAA
smiles,measurement,setting,value
"O=C(O)Cc1c[nH]c2ccc(-c3ccccc3)cc12 [5-Ph-IAA, 5-phenyl-indole 3-acetic acid]",degradation of GFP (FACS) at low concentrations,[1],functioned at a considerably low concentration
same,appearance of the cell (mitotic accumulation),[2]; 24 hours after addition,accumulation of cells in the mitotic period was observed
same,degradation of DHC1-mAID-Clover fused protein (microscopic images),[2]; 24 hours after addition,degraded a DHC1-mAID-Clover fused protein
same,degradation of DHC1 and mAID by Western blotting,[2]; clones #1 to #3,degradation of DHC1 and mAID was confirmed
same,degradation of mAID-EGFP-CENPH by Western blotting,mAID-EGFP-CENPH,degradation of mAID-EGFP-CENPH was confirmed
same,degradation of mAID-EGFP-POLD1 by Western blotting,mAID-EGFP-POLD1,degradation of mAID-EGFP-POLD1 was confirmed
same,change in body weight,[3],not observed
same,tumor suppression,[4],the tumor suppression was not observed
same,tumor suppression,mAID-BRD4 xenografts; 3 mg/kg orally,significant tumor suppression
same,tumor suppression,"mAID-BRD4 xenografts; 1, 3 and 10 mg/kg intraperitoneally daily, day 7 to day 14",significant tumor suppression
same,tumor suppression,TOP2A-mAC xenografts,a similar tendency was observed
same,time to disappearance of reporter signal in embryos,mAID-EGFP reporters; 5 mg/kg intraperitoneally to pregnant females with E13.5 embryos,≤ 1 h
same,expression of the reporter in organs,"mAID-EGFP reporters; 10 mg/kg intraperitoneally, 6 hours after administration, ovary, fallopian tubes, small intestine, heart, bladder, brain, adult female",significantly reduced
same,time to full restoration of reporter expression after medium replacement,[5],3 h
